Reference: PMC10605010, “Immunotechniques for the Group Determination of Macrolide Antibiotics Traces in the Environment Using a Volume-Mediated Sensitivity Enhancement Strategy” (Biosensors, 2023)
In brackets after ≈: the same amount, converted by molar mass. Several values for one entry are separate records, joined by “and”; a condition that tells them apart may be missing. Equal entries are not always repeated. Where two headings read alike, the source gives them in different places.

Legend:
[1] = system: anti-BSA-cmoCLA(ae) antibodies; experiment: Indirect competitive ELISA (icELISA), variants by coating antigen; assay type: binding, rabbit; conditions: for CR: CLA = 100
Protocol: In present work, we investigated and compared several new-designed and previously established coating antigens, which were adsorbed on the 96-well Costar plates from 0.1 to 3.0 µg/mL solutions in CBB (pH 9.6) overnight at 4 °C. […] Solutions of these analytes (1 pg/mL–1 μg/mL) were added to wells of the plate along with anti-cmoCLA antibody in PBS-T with 1%BSA and incubated for 1 h at 25 °C in plate-shaker ST-3 L (ELMI Ltd. laboratory equipment, Riga, Latvia). GAR-HRP was used to detect antigen-antibody formed complexes for 1 h at 37 °C. The activity of the bound enzyme was detected using TMB-substrate mixture, and the intensity of colored product was read at 450 nm using a LisaScan spectrophotometer (Erba Mannheim, Czech Republic). […] The relative antibody-binding absorbance (B/B0) was determined for each concentration of analyte and used to construct a calibration curve as B/B0 versus the concentration. Structurally related macrolides CLA, ESE, ROX, AZI, DIR, TUL, and OLE were analyzed for their cross-reactions. […] Assay sensitivity, limit of detection (LOD), and working range of the assay were set as values of IC50, IC10, and IC20-IC80 range, respectively.

[2] = system: anti-BSA-cmoCLA(ae) antibodies; design: method as in PMID 25256165; conditions: coating antigen GEL-cmoCLA(ae), cited from earlier work; for IC50: homologous; for CR: CLA = 100, recalculated from ref 18
[3] = system: antibody to immunogen BSA-cmoERY(ma); design: method as in PMID 25308648; conditions: milk; ERY = 100; cited from earlier work
[4] = system: antibody to immunogen BSA-cmoCLA(ae); design: method as in doi:10.1039/C9QM00429G; conditions: milk, cited from earlier work; for CR: CLA = 100
[5] = system: antibody to immunogen BSA-cmoCLA(ae); design: method as in PMID 32693204; conditions: breast milk, cited from earlier work; for CR: CLA = 100
[6] = system: antibody to immunogen BSA-cmoERY(ma); conditions: milk; ERY = 100; cited from earlier work
[7] = coating antigen OVA-aecAZI(dma)

| Compound | IC50 ([1]; coating antigen OVA(pi)-aecAZI) | CR ([1]; coating antigen OVA(pi)-aecAZI) | IC50 [1, 7] | CR [1, 7] | IC50 ([1]; coating antigen OVA-aecAZI(ga)) | CR ([1]; coating antigen OVA-aecAZI(ga)) | IC50 ([1]; coating antigen OVA-cmoERY(ae)) | CR ([1]; coating antigen OVA-cmoERY(ae)) | CR (detectability) ([1]; span over all ELISAs utilizing coated AZI conjugates) | IC50 [2] | CR [2] | CR [3] | CR [4] | CR [5] | IC50 [4] | LOD [4] | IC50 [5] | LOD [5] | CR [6] |
| --- | --- | --- | --- | --- | --- | --- | --- | --- | --- | --- | --- | --- | --- | --- | --- | --- | --- | --- | --- |
| CC[C@H]1OC(=O)[C@H](C)[C@@H](O[C@H]2C[C@@](C)(OC)[C@@H](O)[C@H](C)O2)[C@H](C)[C@@H](O[C@@H]2O[C@H](C)C[C@H](N(C)C)[C@H]2O)[C@](C)(O)C[C@@H](C)CN(C)[C@H](C)[C@@H](O)[C@]1(C)O [AZI, azithromycin] | 0.107 ng/mL (≈ 0.143 nM) | 41% and 41.1% | 1.220 ng/mL (≈ 1.63 nM) | 12.9% | 0.315 ng/mL (≈ 0.421 nM) | 13.7% | 1.990 ng/mL (≈ 2.66 nM) | 9% and 8.6% | 13–41% | 1.63 ng/mL (≈ 2.18 nM) | 9% and 8.8% | 0.9% | 16.2% | 5.7% | – | – | – | – | – |
| CC[C@H]1OC(=O)[C@H](C)[C@@H](O[C@H]2C[C@@](C)(OC)[C@@H](O)[C@H](C)O2)[C@H](C)[C@@H](O[C@@H]2O[C@H](C)C[C@H](N(C)C)[C@H]2O)[C@](C)(OC)C[C@@H](C)C(=O)[C@H](C)[C@@H](O)[C@]1(C)O [CLA, clarithromycin] | 0.044 ng/mL (≈ 0.0588 nM) | 100% | 0.157 ng/mL (≈ 0.21 nM) | 100% | 0.043 ng/mL (≈ 0.0575 nM) | 100% | 0.172 ng/mL (≈ 0.23 nM) | 100% | – | 0.16 ng/mL (≈ 0.214 nM) | 100% | 26.7% | 100% | 100% | 0.16 ng/mL (≈ 0.214 nM) | 0.095 ng/mL | 0.45 ng/mL (≈ 0.602 nM) | 0.12 ng/mL | 26.7% |
| CC[C@H]1OC(=O)[C@H](C)[C@@H](O[C@H]2C[C@@](C)(OC)[C@@H](O)[C@H](C)O2)[C@H](C)[C@@H](O[C@@H]2O[C@H](C)C[C@H](N(C)C)[C@H]2O)[C@](C)(O)C[C@@H](C)[C@@H]2N[C@@H](COCCOC)O[C@H]([C@H]2C)[C@]1(C)O [DIR, dirithromycin] | 0.096 ng/mL (≈ 0.115 nM) | 45.8% | 0.544 ng/mL (≈ 0.651 nM) | 28.9% | 0.136 ng/mL (≈ 0.163 nM) | 31.6% | 0.554 ng/mL (≈ 0.663 nM) | 31% | – | – | – | 157% | – | 5.4% | – | – | – | – | 157% |
| CCOC(=O)CCC(=O)O[C@H]1[C@H](O[C@@H]2[C@@H](C)[C@H](O[C@H]3C[C@@](C)(OC)[C@@H](O)[C@H](C)O3)[C@@H](C)C(=O)O[C@H](CC)[C@@](C)(O)[C@H](O)[C@@H](C)C(=O)[C@H](C)C[C@@]2(C)O)O[C@H](C)C[C@@H]1N(C)C [ESE, erythromycin ethyl succinate] | 0.074 ng/mL | 59.5% | 0.352 ng/mL | 44.6% | 0.094 ng/mL | 45.7% | 0.466 ng/mL | 37% and 36.9% | – | – | – | – | – | – | – | – | – | – | 43.7% |
| CO[C@H]1C[C@H](O[C@H]2[C@H](C)[C@@H](O[C@@H]3O[C@H](C)C[C@H](N(C)C)[C@H]3O)[C@@H](C)C[C@@]3(CO3)C(=O)[C@H](C)[C@@H](O)[C@@H](C)[C@@H](C)OC(=O)[C@@H]2C)O[C@@H](C)[C@@H]1O [OLE, oleandomycin] | 45.64 ng/mL (≈ 66.3 nM) | 0.1% | 287.2 ng/mL (≈ 418 nM) | 0.05% | 40.10 ng/mL (≈ 58.3 nM) | 0.11% | 75.75 ng/mL (≈ 110 nM) | 0.2% | – | – | – | – | – | – | – | – | – | – | – |
| CC[C@H]1OC(=O)[C@H](C)[C@@H](O[C@H]2C[C@@](C)(OC)[C@@H](O)[C@H](C)O2)[C@H](C)[C@@H](O[C@@H]2O[C@H](C)C[C@H](N(C)C)[C@H]2O)[C@](C)(O)C[C@@H](C)/C(=N\OCOCCOC)[C@H](C)[C@@H](O)[C@]1(C)O [ROX, roxithromycin] | 0.051 ng/mL (≈ 0.0609 nM) | 86.3% | 0.157 ng/mL (≈ 0.188 nM) | 100% | 0.040 ng/mL (≈ 0.0478 nM) | 107.5% | 0.125 ng/mL (≈ 0.149 nM) | 137.6% | – | 0.14 ng/mL (≈ 0.167 nM) | 125% | 14.8% | 21.1% | 97.8% | – | – | – | – | 92% |
| CCCNC[C@]1(O)[C@H](C)O[C@@H](O[C@H]2[C@H](C)[C@@H](O[C@@H]3O[C@H](C)C[C@H](N(C)C)[C@H]3O)[C@](C)(O)C[C@@H](C)CN[C@H](C)[C@@H](O)[C@](C)(O)[C@@H](CC)OC(=O)[C@@H]2C)C[C@@]1(C)OC [TUL, tulathromycin] | 5.403 ng/mL (≈ 6.7 nM) | 0.81% | 379.5 ng/mL (≈ 471 nM) | 0.04% | 134.8 ng/mL (≈ 167 nM) | 0.03% | 629.9 ng/mL (≈ 781 nM) | – | – | – | – | – | – | – | – | – | – | – | – |
